Source: US9255080B2, “Quinazolinedione derivatives as PARP inhibitors” (Janssen Pharmaceutica NV, priority 2004, dated 2016)

Assays:
PARP-1 enzyme [1] = molecular target: T1, PARP-1 enzyme (Homo sapiens, UniProt P09874); experiment: In vitro filtration assay for PARP-1 inhibitory activity; type: biochemical
Experimental: In Vitro Filtration Assay for PARP-1 Inhibitory Activity
Compounds of the present invention were tested in an in vitro filtration assay assessing PARP-1 activity (triggered in the presence of nicked DNA) by means of its histone poly (ADP-ribosyl)ation activity using [^32P]-NAD as ADP-ribosyl donor. The radioactive ribosylated histones were precipitated by trichloroacetic acid (TCA) in 96-well filterplates and the incorporated [^32P] measured using a scintillation counter
A mixture of histones (stock solution: 5 mg/ml in H2O), NAD^+ (stock solution: 100 mM in H2O), and [^32P]-NAD^+ in incubation buffer (50 mM Tris/HCl, pH 8; 0.2 mM DTT; 4 mM MgCl2) was made. A mixture of the PARP-1 enzyme (5-10 μg/ml) and nicked DNA was also made. The nicked DNA was prepared as described in the in vitro SPA for PARP-1 inhibitory activity. Seventy-five μl of the PARP-1 enzyme/DNA mixture together with 1 μl of compound in DMSO and 25 μl of histones-NAD^+/[^32P]-NAD^+ mixture was added per well of a 96-well filterplate (0.45 μm, supplier Millipore). The final concentrations in the incubation mixture were 2 μg/ml for the histones, 0.1 mM for the NAD^+, […] (0.5 μC) for the [^32P]-NAD^+ and 2 μg/ml for the nicked DNA. Plates were incubated for 15 min. at room temperature and the reaction was terminated by the addition of 10 μl ice cold 100% TCA followed by the addition of 10 μl ice-cold BSA solution (1% in H2O). The protein fraction was allowed to precipitate for 10 min. at 4° C. and plates were vacuum filtered. The plates were subsequently washed with, for each well, 1 ml of 10% ice cold TCA, 1 ml of 5% ice cold TCA and 1 ml of 5% TCA at room temperature. Finally 100 μl of scintillation solution (Microscint 40, Packard) was added to each well and the plates were transferred to a TopCountNXT™ (supplier: Packard) for scintillation counting and values were expressed as counts per minute (cpm). For each experiment, controls (containing PARP-1 enzyme and DMSO without compound), a blank incubation (containing DMSO but no PARP-1 enzyme or compound) and samples (containing PARP-1 enzyme and compound dissolved in DMSO) were run in parallel. All compounds tested were dissolved and eventually further diluted in DMSO. In first instance, compounds were tested at a concentration of 10^−5M. […] In each test, the blank value was subtracted from both the control and the sample values. The control sample represented maximal PARP-1 enzyme activity. For each sample, the amount of cpm was expressed as a percentage of the mean cpm value of the controls. […] Herein the effects of test compounds are expressed as pIC50 (the negative log value of the IC50-value).

PARP-1 enzyme [2] = molecular target: T1, PARP-1 enzyme; experiment: In vitro scintillation proximity assay (SPA) for PARP-1 inhibitory activity; type: biochemical
Experimental: In Vitro Scintillation Proximity Assay (SPA) for PARP-1 Inhibitory Activity
Compounds of the present invention were tested in an in vitro assay based on SPA technology (proprietary to Amersham Pharmacia Biotech).
In principle, the assay relies upon the well established SPA technology for the detection of poly(ADP-ribosyl)ation of biotinylated target proteins, i.e histones. This ribosylation is induced using nicked DNA activated PARP-1 enzyme and [^3H]-nicotinamide adenine dinucleotide ([^3H]-NAD^+) as ADP-ribosyl donor.
As inducer of PARP-1 enzyme activity, nicked DNA was prepared. For this, 25 mg of DNA (supplier: Sigma) was dissolved in 25 ml DNAse buffer (10 mM Tris-HCl, pH 7.4; 0.5 mg/ml Bovine Serum Albumine (BSA); 5 mM MgCl2.6H2O and 1 mM KCl) to which 50 μl DNAse solution (1 mg/ml in 0.15 M NaCl) was added. After an incubation of 90 min. at 37° C., the reaction was terminated by adding 1.45 g NaCl, followed by a further incubation at 58° C. for 15 min. The reaction mixture was cooled on ice and dialysed at 4° C. for respectively 1.5 and 2 hours against 1.5 l of 0.2 M KCl, and twice against 1.5 l of 0.01 M KCl for 1.5 and 2 h respectively. The mixture was aliquoted and stored at −20° C. Histones (1 mg/ml, type II-A, supplier: Sigma) were biotinylated using the biotinylation kit of Amersham and stored aliquoted at −20° C. A stock solution of 100 mg/ml SPA poly(vinyl toluene) (PVT) beads (supplier: Amersham) was made in PBS. A stock solution of [^3H]-NAD^+ was made by adding 120 μl of [^3H]-NAD^+ (0.1 mCi/ml, supplier: NEN) to 6 ml incubation buffer (50 mM Tris/HCl, pH 8; 0.2 mM DTT; 4 mM MgCl2). A solution of 4 mM NAD^+ (supplier: Roche) was made in incubation buffer (from a 100 mM stock solution in water stored at −20° C.). The PARP-1 enzyme was produced using art known techniques, i.e. cloning and expression of the protein starting from human liver cDNA. Information concerning the used protein sequence of the PARP-1 enzyme including literature references can be found in the Swiss-Prot database under primary accession number P09874. Biotinylated histones and PVT-SPA beads were mixed and pre-incubated for 30 min. at room temperature. PARP-1 enzyme (concentration was lot dependent) was mixed with the nicked DNA and the mixture was pre-incubated for 30 min. at 4° C. Equal parts of this histones/PVT-SPA beads solution and PARP-1 enzyme/DNA solution were mixed and 75 μl of this mixture together with 1 μl of compound in DMSO and 25 μl of [^3H]-NAD^+ was added per well into a 96-well microtiterplate. The final concentrations in the incubation mixture were 2 μg/ml for the biotinylated histones, 2 mg/ml for the PVT-SPA beads, 2 μg/ml for the nicked DNA and between 5-10 μg/ml for the PARP-1 enzyme. After incubation of the mixture for 15 min. at room temperature, the reaction was terminated by adding 100 μl of 4 mM NAD^+ in incubation buffer (final concentration 2 mM) and plates were mixed.
The beads were allowed to sediment for at least 15 min. and plates transferred to a TopCountNXT™ (Packard) for scintillation counting, values were expressed as counts per minute (cpm). For each experiment, controls (containing PARP-1 enzyme and DMSO without compound), a blank incubation (containing DMSO but no PARP-1 enzyme or compound) and samples (containing PARP-1 enzyme and compound dissolved in DMSO) were run in parallel. All compounds tested were dissolved and eventually further diluted in DMSO. In first instance, compounds were tested at a concentration of 10^−5M. […] In each test, the blank value was subtracted from both the control and the sample values. The control sample represented maximal PARP-1 enzyme activity. For each sample, the amount of cpm was expressed as a percentage of the mean cpm value of the controls. […] Herein the effects of test compounds are expressed as pIC50 (the negative log value of the IC50-value).

[3] = [32P]-NAD, histones, nicked DNA, read-out: in vitro filter assay PARP-1 pIC50 (converted)
[4] = [3H]-NAD+, biotinylated histones, nicked DNA, read-out: in vitro SPA assay PARP-1 pIC50 (converted)

T1 sequence (P09874 whole entry): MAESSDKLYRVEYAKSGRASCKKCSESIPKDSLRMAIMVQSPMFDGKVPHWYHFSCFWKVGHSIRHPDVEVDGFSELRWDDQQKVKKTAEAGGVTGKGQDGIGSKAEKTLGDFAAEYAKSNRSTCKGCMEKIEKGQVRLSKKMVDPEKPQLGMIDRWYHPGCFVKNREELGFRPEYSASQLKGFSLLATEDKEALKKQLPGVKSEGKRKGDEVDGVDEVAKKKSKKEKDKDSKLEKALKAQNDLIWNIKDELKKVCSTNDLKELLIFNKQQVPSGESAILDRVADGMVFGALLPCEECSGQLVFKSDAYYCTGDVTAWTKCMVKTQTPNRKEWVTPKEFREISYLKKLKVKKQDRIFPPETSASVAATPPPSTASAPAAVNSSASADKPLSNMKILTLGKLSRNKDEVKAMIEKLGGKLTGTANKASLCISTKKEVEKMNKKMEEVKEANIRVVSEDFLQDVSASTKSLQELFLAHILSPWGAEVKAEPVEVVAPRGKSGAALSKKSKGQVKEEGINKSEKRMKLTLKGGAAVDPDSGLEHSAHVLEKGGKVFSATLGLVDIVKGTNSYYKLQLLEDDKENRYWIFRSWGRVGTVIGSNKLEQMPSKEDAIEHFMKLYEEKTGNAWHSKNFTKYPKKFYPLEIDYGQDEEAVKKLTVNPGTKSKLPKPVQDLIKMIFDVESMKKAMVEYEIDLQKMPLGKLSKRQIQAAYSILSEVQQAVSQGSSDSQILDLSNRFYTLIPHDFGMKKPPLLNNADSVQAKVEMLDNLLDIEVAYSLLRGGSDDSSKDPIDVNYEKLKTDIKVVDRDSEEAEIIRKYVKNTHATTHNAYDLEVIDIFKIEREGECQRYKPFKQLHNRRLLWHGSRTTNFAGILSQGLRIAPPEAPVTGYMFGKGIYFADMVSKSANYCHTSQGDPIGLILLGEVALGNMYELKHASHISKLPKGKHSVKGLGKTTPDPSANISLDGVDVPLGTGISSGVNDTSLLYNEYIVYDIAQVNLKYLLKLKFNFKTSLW

| IC50 (PARP-1 enzyme [1]; [3]) | IC50 (PARP-1 enzyme [2]; [4]) | SMILES | IC50 (PARP-1 enzyme [1]) | IC50 (PARP-1 enzyme [2]) |
| --- | --- | --- | --- | --- |
| 2180 nM | 359 nM | O=c1[nH]c(=O)n(C2CCN(CC(O)C3CCc4ccccc4O3)CC2)c2ccccc12 (stereo in doubt) [Compound 9, 1-[1-[(2S)-2-[(2R)-3,4-dihydro-2H-1-benzopyran-2-yl]-2-hydroxyethyl]-4-piperidinyl]-2,4(1H,3H)-quinazolinedione] | – | – |
| 1570 nM | 257 nM | O=C(CCCN1CCC(n2c(=O)[nH]c(=O)c3ccccc32)CC1)c1ccc(F)cc1 [Compound 2] | – | – |
| – | – | O=c1[nH]c(=O)n(CCCN2CCC(c3c[nH]c4ccccc34)CC2)c2ccccc12 [Compound 3] | 1030 nM | 136 nM |
| 1740 nM | 348 nM | O=c1[nH]c(=O)n(C2CCN(CCCn3c(=O)[nH]c4ccccc43)CC2)c2ccccc12 [Compound 5] | – | – |
| 1800 nM | 220 nM | O=C(c1ccc(F)cc1)C1CCN(CCn2c(=O)[nH]c(=O)c3ccccc32)CC1 [Compound 10, 1-[2-[4-(4-fluorobenzoyl)-1-piperidinyl]ethyl]-2,4-(1H,3H)-quinazolinedione] | – | – |
| 2720 nM | 221 nM | O=C(c1ccc(F)cc1)C1CCN(CCCn2c(=O)[nH]c(=O)c3ccccc32)CC1 [Compound 11, 1-[3-[4-(4-fluorobenzoyl)-1-piperidinyl]propyl]-2,4-(1H,3H)-quinazolinedione] | – | – |

| SMILES | IC50 (PARP-1 enzyme [1]; [3]) | IC50 (PARP-1 enzyme [2]; [4]) | IC50 (PARP-1 enzyme [1]) | IC50 (PARP-1 enzyme [2]) |
| --- | --- | --- | --- | --- |
| O=c1[nH]c(=O)n(C2CCNCC2)c2ccccc12 [Compound 1] | 465 nM | 204 nM | – | – |
| O=c1[nH]c(=O)n(CCN2CCC(O)(c3ccc(Cl)cc3)CC2)c2ccccc12 [Compound 6] | 1330 nM | 167 nM | – | – |
| O=c1[nH]c(=O)n(CCCN2CCC(O)(c3ccc(Cl)cc3)CC2)c2ccccc12 [Compound 7] | 3240 nM | 292 nM | – | – |
